Measured values published in patent US12247032B2, “Substituted pyrazolo[1,5-a]pyrimidines as inhibitors of JAK kinases” (Genentech, Inc., priority 2019, dated 2025).

Assays:
[1] = tested on: JAK1 pathway (P-STAT6 in TF-1 human erythroleukemia cells + IL-13); experiment: P-STAT6 TF-1+Interleukin-13 (IL-13) assay; assay type: cell-based; details: Homo sapiens, TF-1, 0.5 h, TF-1 cells, 30 minutes compound, IL-13 10 minutes; IC50 by four-parameter fit; read-out: Cellular PSTAT6 TF-1 + IL13
Protocol: (§1) TF-1 human erythroleukemia cells (ATCC®; Manassas, VA; Catalog No. CRL-2003™) were grown in Roswell Park Memorial Institute (RPMI) medium supplemented with 10% heat-inactivated fetal bovine serum (FBS), 2 ng/mL granulocyte-macrophage colony-stimulating factor, 1× non-essential amino acids (NEAA), and 1 mM sodium pyruvate. The day before the assay, the cultures were transferred to Opti-MEM™, 1×NEAA, 1 mM sodium pyruvate, and 0.5% charcoal-stripped FBS (starve medium). Inhibitor stock solutions (5 mM in DMSO) were serially diluted 1:2 in DMSO to generate a 10-point concentration titration (at 500× test concentration), which was further diluted by a 50-fold dilution in Assay Medium (RPMI containing 1×NEAA and 1 mM sodium pyruvate) to generate a 10× concentration titration (in 2% DMSO). The cells (300,000 cells/well in 35 μL of Assay Medium) were seeded in 384-well Greiner plates. Diluted inhibitor at 10× concentration (5 μL) was added to the cells and the plates were incubated for 30 minutes at 37° C. in a humidified incubator. Cells were stimulated with the human recombinant cytokine at the respective EC90 concentrations, as previously determined for each individual lot. For the phosphorylated signal transducer and activator of transcription 6 (P-STAT6) TF-1+Interleukin-13 (IL-13) assay, 10 μL of 250 ng/mL IL-13 (R&D Systems; Minneapolis, MN) was added to the cells, which were then incubated for 10 minutes at 37° C. For the P-STAT5 TF-1+Erythropoietin (EPO) assay, 10 μL of 110 IU/mL EPO (Gibco Life Technologies, Catalog No. PHC2054) was added to the cells, which were then incubated for 30 min at 37° C. For both assays, the incubation was followed by addition to the cells of 5 μL of ice-cold 10× cell lysis buffer (Cell Signaling Technologies; Danvers, MA; Catalog No. 9803S) containing 1 mM phenylmethylsulfonyl fluoride (PMSF). Assay plates were frozen at −80° C. for a minimum of 1 hour. In the IL-13 assay, P-STAT6 was measured by coating goat anti-rabbit (GAR) plates (Meso Scale Discovery [MSD]; Rockville, MD; Catalog No. MSD L21RA-1) with rabbit anti-human total STAT6 antibody (Cell Signaling Technologies; Catalog No. 9362S), incubating the cell lysates in the coated plates overnight at 4° C., and then detecting with mouse anti-P-STAT6 (Tyr641) Clone 16E12 antibody (MilliporeSigma; Burlington, MA; Catalog No. 05-590, custom labeled by MSD with SULFO-tag) using standard MSD plate processing, washing, and detection protocols. In the EPO assay, P-STAT5 was detected using the phospho-STAT5a,b Whole Cell Lysate Kit (MSD; Catalog No. K150IGD-1). The electrochemiluminescence (ECL) signal of wells was read on the MESO SECTOR S600 (MSD) reader.
(§2) Data analysis was performed by subtracting the negative control (cytokine stimulated and 20 μM control inhibitor-treated cells) mean ECL value from the ECL value of all wells, determining percent of control for test compound well ECL values relative to the positive control (cytokine stimulated and DMSO-treated cells) mean ECL value, and determining the IC50 for test compounds with a four-parameter logistic fit model as shown in Equation 4.

[2] = tested on: JAK2 pathway (P-STAT5 in TF-1 human erythroleukemia cells + EPO); experiment: P-STAT5 TF-1+Erythropoietin (EPO) assay; assay type: cell-based; details: Homo sapiens, TF-1, 0.5 h, TF-1 cells, 30 minutes compound, EPO 30 min; IC50 by four-parameter fit; read-out: Cellular (JAK2 PSTAT5 TF1 + EPO)
Protocol: as §1, §2

SMILES	IC50 [1] [µM]	IC50 [2] [µM]
NCCn1nnc(Cn2cc(NC(=O)c3cnn4cccnc34)c(-c3cc(OC(F)F)ccc3OC(F)F)n2)n1 [Example 13, N-[1-[[2-(2-aminoethyl)tetrazol-5-yl]methyl]-3-[2,5-bis(difluoromethoxy)phenyl]pyrazol-4-yl]pyrazolo[1,5-a]pyrimidine-3-carboxamide]	0.018	0.01
CNCCn1nnnc1Cn1cc(NC(=O)c2cnn3cccnc23)c(-c2cc(OC(F)F)ccc2OC(F)F)n1 [Example 19, N-[3-[2,5-bis(difluoromethoxy)phenyl]-1-[[1-[2-(methylamino)ethyl]tetrazol-5-yl]methyl]pyrazol-4-yl]pyrazolo[1,5-a]pyrimidine-3-carboxamide]	0.007	0.021
NCCn1nnnc1Cn1cc(NC(=O)c2cnn3cccnc23)c(-c2cc(OC(F)F)ccc2OC(F)F)n1 [Example 14, N-[1-[[1-(2-aminoethyl)tetrazol-5-yl]methyl]-3-[2,5-bis(difluoromethoxy)phenyl]pyrazol-4-yl]pyrazolo[1,5-a]pyrimidine-3-carboxamide]	0.045	0.046
CN1CCC(N2CC(n3nnc(Cn4cc(NC(=O)c5cnn6cccnc56)c(-c5cc(OC(F)F)ccc5OC(F)F)n4)n3)C2)C1 (single isomer, unassigned) [Example 72, N-[3-[2,5-bis(difluoromethoxy)phenyl]-1-[[2-[1-(1-methylpyrrolidin-3-yl)azetidin-3-yl]tetrazol-5-yl]methyl]pyrazol-4-yl]pyrazolo[1,5-a]pyrimidine-3-carboxamide]	0.039	0.051
CN(C)CCn1nnc(Cn2cc(NC(=O)c3cnn4cccnc34)c(-c3cc(OC(F)F)ccc3OC(F)F)n2)n1 [Example 16, N-[3-[2,5-bis(difluoromethoxy)phenyl]-1-[[2-[2-(dimethylamino)ethyl]tetrazol-5-yl]methyl]pyrazol-4-yl]pyrazolo[1,5-a]pyrimidine-3-carboxamide]	0.012	0.012
O=C(Nc1cn(Cc2nnn(C3CNC3)n2)nc1-c1cc(OC(F)F)ccc1OC(F)F)c1cnn2cccnc12 [Example 11, N-[1-[[2-(azetidin-3-yl)tetrazol-5-yl]methyl]-3-[2,5-bis(difluoromethoxy)phenyl]pyrazol-4-yl]pyrazolo[1,5-a]pyrimidine-3-carboxamide]	0.0095	0.01
CN1CC(n2nnc(Cn3cc(NC(=O)c4cnn5cccnc45)c(-c4cc(C5CC5)ccc4OC(F)F)n3)n2)C1 [Example 23, N-[3-[5-cyclopropyl-2-(difluoromethoxy)phenyl]-1-[[2-(1-methylazetidin-3-yl)tetrazol-5-yl]methyl]pyrazol-4-yl]pyrazolo[1,5-a]pyrimidine-3-carboxamide]	0.0074	0.0082
O=C(Nc1cn(Cc2nnn(C3CCNC3)n2)nc1-c1cc(OC(F)F)ccc1OC(F)F)c1cnn2cccnc12 (single isomer, unassigned) [Example 27, N-[3-[2,5-bis(difluoromethoxy)phenyl]-1-[(2-pyrrolidin-3-yltetrazol-5-yl)methyl]pyrazol-4-yl]pyrazolo[1,5-a]pyrimidine-3-carboxamide]	0.013	0.017
CN(C)CCN1CCC(n2nnc(Cn3cc(NC(=O)c4cnn5cccnc45)c(-c4cc(OC(F)F)ccc4OC(F)F)n3)n2)CC1 [Example 61, N-[3-[2,5-bis(difluoromethoxy)phenyl]-1-[[2-[1-[2-(dimethylamino)ethyl]-4-piperidyl]tetrazol-5-yl]methyl]pyrazol-4-yl]pyrazolo[1,5-a]pyrimidine-3-carboxamide]	0.033	0.036
